Consider 23 compounds from patent US8765728B2, “[1,5]-diazocin derivatives” (MelliTech, priority 2009, dated 2014).

This experiment concerns Min6 cell. The experiment can be described thus: Insulin secretion response of beta cell line to formula I compounds (insulin ELISA). The settings on record: rank according to % increase versus control at most effective dose. Type of experiment: cell-based. The procedure: The secretory responses of beta cell lines to glucose were tested as described in Merglen et al. Endocrinology, (2004) 145(2):667-78.
Briefly, after incubation with compounds from formula I or control vehicle, cells were maintained for 2 hours in glucose-free culture medium. The cells were then washed twice and preincubated for 30 minutes at 37° C. in glucose-free Krebs-Ringer bicarbonate HEPES buffer (KRBH: 135 mM NaCl, 3.6 mM KCl, 5 mM NaHCO3, 0.5 mM NaH2PO4, 0.5 mM MgCl2, 1.5 mM CaCl2, and 10 mM HEPES, pH 7.4). BSA (0.1%) was added as an insulin carrier. Cells were subsequently washed with glucose-free KRBH and then incubated for 30 minutes at 37° C. in KRBH containing different concentrations of glucose. The reaction was stopped by placing the plates on ice; supernatants were collected to determine insulin secretion and cells were used for intracellular insulin content following acid-ethanol extraction. Insulin was measured by ELISA (Linco) according to the manufacturer's instructions.
On the technique in general: An ELISA detects its analyte on a solid surface through an enzyme-linked reagent.
As for `O=C(CN1CCC(=O)N(C2CC2)Cc2cc(F)ccc21)c1ccc(N2CCCC2)cc1` [Compound 56, 5-cyclopropyl-8-fluoro-1-(2-oxo-2-(4-(pyrrolidin-1-yl)phenyl)ethyl)-2,3,5,6-tetrahydrobenzo[b][1,5]diazocin-4(1H)-one], the “Insulin secretion (Min6 cell) Range 1 to 5” value (shortened to “Insulin secretion”) is 2 (2: 110-120% of control).
In the case of `COc1ccccc1C(O)CN1CCC(=O)N(C2CC2)Cc2cc(F)ccc21` (centres unmarked) [Compound 57, 5-cyclopropyl-8-fluoro-1-(2-hydroxy-2-(2-methoxyphenyl)ethyl)-2,3,5,6-tetrahydrobenzo[b][1,5]diazocin-4(1H)-one], the “Insulin secretion” value was 2 (2: 110-120% of control).
Consider `COc1cccc(C(O)CN2CCC(=O)N(C3CC3)Cc3cc(F)ccc32)c1` (centres unmarked) [Compound 58, 5-cyclopropyl-8-fluoro-1-(2-hydroxy-2-(3-methoxyphenyl)ethyl)-2,3,5,6-tetrahydrobenzo[b][1,5]diazocin-4(1H)-one], for which the “Insulin secretion” value is recorded as 2 (2: 110-120% of control).
Turning to `COc1ccc(C(O)CN2CCC(=O)N(C3CC3)Cc3cc(F)ccc32)cc1` (centres unmarked) [Compound 59, 5-cyclopropyl-8-fluoro-1-(2-hydroxy-2-(4-methoxyphenyl)ethyl)-2,3,5,6-tetrahydrobenzo[b][1,5]diazocin-4(1H)-one], the “Insulin secretion” value is recorded as 2 (2: 110-120% of control).
On to `O=C1CCN(CC(O)c2ccc3c(c2)OCCO3)c2ccc(F)cc2CN1C1CC1` (centres unmarked) [Compound 60, 5-cyclopropyl-1-(2-(2,3-dihydrobenzo[b][1,4]dioxin-6-yl)-2-hydroxyethyl)-8-fluoro-2,3,5,6-tetrahydrobenzo[b][1,5]diazocin-4(1H)-one], for which the “Insulin secretion” value is reported as 2 (2: 110-120% of control).
As to `O=C1CCN(CC(O)c2ccccc2)c2ccc(F)cc2CN1C1CC1` (centres unmarked) [Compound 61, 5-cyclopropyl-8-fluoro-1-(2-hydroxy-2-phenylethyl)-2,3,5,6-tetrahydrobenzo[b][1,5]diazocin-4(1H)-one], the “Insulin secretion” value was 3 (3: 120-140% of control).
Turning to `O=C1CCNc2cnccc2CN1C1CC1` [Compound 62, 5-cyclopropyl-2,3,5,6-tetrahydropyrido[3,4-b][1,5]diazocin-4(1H)-one], the “Insulin secretion” value was 2 (2: 110-120% of control).
Regarding `C=CCOc1c(OC)ccc2c1CN(C1CCCC1)C(=O)CCN2CC(=O)O` [Compound 63, 2-(7-(allyloxy)-5-cyclopentyl-8-methoxy-4-oxo-3,4,5,6-tetrahydrobenzo[b][1,5]diazocin-1(2H)-yl)acetic acid], the “Insulin secretion” value is recorded as 1 (1: 90-110% of control).
In the case of `O=C1CCN(CC(O)c2ccc(N3CCCC3)cc2)c2ccc(F)cc2CN1C1CC1` (centres unmarked) [Compound 64, 5-cyclopropyl-8-fluoro-1-(2-hydroxy-2-(4-(pyrrolidin-1-yl)phenyl)ethyl)-2,3,5,6-tetrahydrobenzo[b][1,5]diazocin-4(1H)-one] it was 5 (5: >170% of control).
For the compound `O=C1CCN(CC(O)COc2ccc(F)cc2)c2ccc(F)cc2CN1C1CC1` (centres unmarked) [Compound 65, 5-cyclopropyl-8-fluoro-1-(3-(4-fluorophenoxy)-2-hydroxypropyl)-2,3,5,6-tetrahydrobenzo[b][1,5]diazocin-4(1H)-one], the “Insulin secretion” value is given as 3 (3: 120-140% of control).
As for `O=C1CCN(C[C@H](O)COCc2ccccc2)c2ccc(F)cc2CN1C1CC1` [Compound 66, (S)-1-(3-(benzyloxy)-2-hydroxypropyl)-5-cyclopropyl-8-fluoro-2,3,5,6-tetrahydrobenzo[b][1,5]diazocin-4(1H)-one], the “Insulin secretion” value was 1 (1: 90-110% of control).
On to `COc1ccc2c(c1)CN(C1CC1)C(=O)CCN2C[C@H](O)COCc1ccccc1` [Compound 67, (S)-1-(3-(benzyloxy)-2-hydroxypropyl)-5-cyclopropyl-8-methoxy-2,3,5,6-tetrahydrobenzo[b][1,5]diazocin-4(1H)-one], for which the “Insulin secretion” value is recorded as 3 (3: 120-140% of control).
In the case of `COc1ccc2c(c1)CN(C1CC1)C(=O)CCN2C[C@@H](O)CO` [Compound 68, (R)-5-cyclopropyl-1-(2,3-dihydroxypropyl)-8-methoxy-2,3,5,6-tetrahydrobenzo[b][1,5]diazocin-4(1H)-one], the “Insulin secretion” value was 3 (3: 120-140% of control).
Turning to `O=C(c1ccc(F)cc1)N1CCC(=O)N(C2CC2)Cc2cc(F)ccc21` [Compound 69, 5-cyclopropyl-8-fluoro-1-(4-fluorobenzoyl)-2,3,5,6-tetrahydrobenzo[b][1,5]diazocin-4(1H)-one], the “Insulin secretion” value is 1 (1: 90-110% of control).
As to `O=C(c1cccnc1)N1CCC(=O)N(C2CC2)Cc2cc(F)ccc21` [Compound 70, 5-cyclopropyl-8-fluoro-1-nicotinoyl-2,3,5,6-tetrahydrobenzo[b][1,5]diazocin-4(1H)-one], the “Insulin secretion” value is on record as 1 (1: 90-110% of control).
In the case of `O=C(Cc1ccc(F)cc1)N1CCC(=O)N(C2CC2)Cc2cc(F)ccc21` [Compound 71, 5-cyclopropyl-8-fluoro-1-(2-(4-fluorophenyl)acetyl)-2,3,5,6-tetrahydrobenzo[b][1,5]diazocin-4(1H)-one], the “Insulin secretion” value is given as 4 (4: 140-170% of control).
For the compound `O=C1CCN(Cc2ccccc2)c2ccc(F)cc2CN1C1CC1` [Compound 72, 1-benzyl-5-cyclopropyl-8-fluoro-2,3,5,6-tetrahydrobenzo[b][1,5]diazocin-4(1H)-one], the “Insulin secretion” value is 3 (3: 120-140% of control).
In the case of `O=C1CCN(CCc2ccccc2)c2ccc(F)cc2CN1C1CC1` [Compound 73, 5-cyclopropyl-8-fluoro-1-phenethyl-2,3,5,6-tetrahydrobenzo[b][1,5]diazocin-4(1H)-one] it was 4 (4: 140-170% of control); in that of `O=C1CCN(CCCc2ccccc2)c2ccc(F)cc2CN1C1CC1` [Compound 74, 5-cyclopropyl-8-fluoro-1-(3-phenylpropyl)-2,3,5,6-tetrahydrobenzo[b][1,5]diazocin-4(1H)-one], 4 (4: 140-170% of control).
The same measure for `O=C(c1ccc(F)cc1)N1CCC(=O)N(C2CC2)Cc2cccnc21` [Compound 75, 5-cyclopropyl-1-(4-fluorobenzoyl)-2,3,5,6-tetrahydropyrido[2,3-b][1,5]diazocin-4(1H)-one]: 4 (4: 140-170% of control).
For the compound `O=C(Cc1ccc(F)cc1)N1CCC(=O)N(C2CC2)Cc2cccnc21` [Compound 76, 5-cyclopropyl-1-(2-(4-fluorophenyl)acetyl)-2,3,5,6-tetrahydropyrido[2,3-b][1,5]diazocin-4(1H)-one], the “Insulin secretion” value was 5 (5: >170% of control).
In the case of `O=C(c1cccnc1)N1CCC(=O)N(C2CC2)Cc2cccnc21` [Compound 77, 5-cyclopropyl-1-nicotinoyl-2,3,5,6-tetrahydropyrido[2,3-b][1,5]diazocin-4(1H)-one] it was 5 (5: >170% of control); in that of `O=C1CCNc2ccc(Cl)cc2CN1C1CC1` [Compound 78, 8-chloro-5-cyclopropyl-2,3,5,6-tetrahydrobenzo[b][1,5]diazocin-4(1H)-one], 3 (3: 120-140% of control).
